Series [1] concerns patients with prior clomiphene citrate failures. Description: Toronto insemination cycles after DHEA (reported study). Format: in vivo, human. To be noted: DHEA pregnancies, insemination cycles with clomiphene citrate/letrozole and FSH. Here is the method: In cooperation with Robert F Casper's group at Toronto's Mount Sinai Hospital, they recently reported on 47 patients with prior clomiphene citrate failures who were supplemented with 75 mg daily of DHEA for at least 60 days prior to inseminations, with stimulation by either clomiphene citrate or letrozole in combination with FSH. Controls were 46 women, matched by age and baseline FSH without DHEA supplementation.
The possibility of synergistic gonadotropin and DHEA effects is supported by reanalysis of the Toronto groups' previously noted insemination cycles, stimulated with a clomiphene citrate/letrozole and FSH protocols. […] Final conclusions await, however, further investigations.

The test system is the same in series [2]. To be noted: 47 patients, 75 mg daily DHEA at least 60 days prior to inseminations; cited from earlier work.
Series [3] can be described thus: Level of unconjugated DHEA under routine treatment protocol. Type of series: in vivo, human. To be noted: 25 mg micronized pharmaceutical grade DHEA TID. Here is the method: Routine treatment protocol involves administering about 25 mg of micronized, pharmaceutical grade DHEA, TID, to a human to uniformly raise levels of unconjugated DHEA above 350 ng/dl and, therefore, raise baseline testosterone. In six pregnancies spontaneously conceived, the distribution between female and male offspring was equal, at three and three, respectively. In contrast, in the remaining 15 offspring, which were products of pregnancies achieved through IVF, the distribution was 12 males and 3 females (p=0.035). Amongst women undergoing IVF and PGD, 53 embryos were analyzed from 17 IVF cycles, all having undergone ICSI.
The treatment protocol for long-term supplementation with DHEA that may improve oocyte and embryo quantity, quality, pregnancy rates and time to conception in women with diminished ovarian reserve, involves 25 mg of micronized, pharmaceutical grade DHEA, TID will usually uniformly raise levels of unconjugated DHEA above about 350 ng/dl, and, therefore, raise baseline testosterone. Estradiol baseline levels may also be raised.

For a further series, the system named is DOR patients. Description: Pregnancy outcome at various AMH levels under DHEA supplementation. Format: in vivo, human. From the text: Another study from our center further supports these conclusions (FIG. 22). FIG. 22 is a graph showing spontaneous pregnancy loss in spontaneous and IVF pregnancies at various AMH levels. The figure depicts at various AMH levels in the left column IVF pregnancies (IVF), as previously reported (26), and in the right column spontaneously conceived pregnancies (SP). Each column represents 100% of all pregnancies established, separated for live births (black section), voluntary termination of pregnancy (TOP; usually for aneuploidy) and spontaneous miscarriages (SAB).
In that study (FIG. 22), we investigated live birth rates after IVF at extremely low anti-Müllerian hormone (AMH) levels and were surprised how low miscarriage rates were between non-detectable levels of AMH and 0.4 ng/mL. Losses then increased between AMH 0.41-1.05 ng/mL to over 50 percent, the expected rate in DOR patients, only to fall, once again, to very low levels above AMH 1.05 ng/mL. […]
AMH<1.05 ng/mL represents more severe DOR. […] Chances of clinical pregnancies, miscarriages, terminations of pregnancy, and viable deliveries were then determined among severe DOR patients, depending on AMH levels (below detection, <0.1 ng/mL, 0.1-0.4 ng/mL, 0.41-0.8 ng/mL, 0.81-1.05 ng/mL) and with milder DOR (>1.06 ng/mL). […]

As to `C[C@]12CC[C@H](O)CC1=CC[C@@H]1[C@@H]2CC[C@]2(C)C(=O)CC[C@@H]12` [DHEA, Dehydroepiandrosterone], the “miscarriage rate (calculated on reanalysis)” value in series [1] is on record as 28.5%. In addition, in series [2], the live births is 21.3% and the pregnancy rate is recorded as 29.8%. The “levels of unconjugated DHEA” value in series [3] is “above 350 ng/dl”. Further, in the series on DOR patients (DOR patients under DHEA supplementation, up to AMH 1.05 ng/mL), the “chance of live birth per treatment cycle” value was “approximately 5%”. In addition, the “pregnancy chance per IVF cycle” value in the series on DOR patients (under DHEA supplementation, absence of detectable AMH) is around 5%.

Values taken from patent US9375436B2, “Androgen treatment in females” (priority 2004, dated 2016).
